Measured values published in patent publication US20140107109A1, “AMINO-DIHYDROTHIAZINE AND AMINO-DIOXIDO DIHYDROTHIAZINE COMPOUNDS AS BETA-SECRETASE ANTAGONISTS AND METHODS OF USE” (Amgen Inc., priority 2012, published 2014).
Read-outs that look alike come from different tables or passages of the source.

Legend:
[1] = test system: Aβ40 in conditioned medium of cells stably expressing Amyloid Precursor Protein (APP); test: In vitro BACE cell-based assay (HEK cell assay), Aβ40 sandwich ELISA; settings: Homo sapiens, HEK293
Outline: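 APP-stably expressing cells (40K/well, grown 24 h in DMEM/10% FBS) were treated 24 h with compounds in 10-point dose response starting at 100 μM or 10 μM, 0.1% DMSO final. Secreted Aβ40 was measured by sandwich ELISA (pAb40 capture, biotinylated 6E10 detection, europium time-resolved fluorescence); IC50 from percent inhibition.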

[2] = molecular target: T1, Cathepsin D (Cat D) (Homo sapiens, UniProt P07339); test: In vitro enzymatic Cathepsin D (Cat D) FRET assay; assay type: biochemical; settings: read-out: CatD IC50
T1 construct: Recombinant Cat D was expressed in CHO cells; made in house; host or cells: CHO cells
Outline: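 Recombinant Cat D expressed in CHO cells, used at 9 nM and pre-incubated one hour with serially diluted inhibitor in DMSO. Peptide substrate carries a fluorophore and quencher flanking the cleavage site; reaction stopped with Tris buffer raising pH to neutrality, then fluorescence read.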

[3] = molecular target: Beta Secretase enzyme (BACE1) (Homo sapiens, UniProt P56817); test: In vitro enzymatic BACE FRET assay; assay type: biochemical; settings: read-out: BACE1 FRET assay IC50
Outline: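 BACE1 cleavage of a 50 nM fluorophore/quencher peptide FRET substrate ran for one hour in 0.05 M acetate pH 4.2, 10% DMSO, 100 uM genapol. Tris buffer raised pH to neutrality to stop the reaction before fluorescence was read (excitation 488 nm, […]).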

Beta Secretase enzyme (BACE1), sequence (P56817 46-501): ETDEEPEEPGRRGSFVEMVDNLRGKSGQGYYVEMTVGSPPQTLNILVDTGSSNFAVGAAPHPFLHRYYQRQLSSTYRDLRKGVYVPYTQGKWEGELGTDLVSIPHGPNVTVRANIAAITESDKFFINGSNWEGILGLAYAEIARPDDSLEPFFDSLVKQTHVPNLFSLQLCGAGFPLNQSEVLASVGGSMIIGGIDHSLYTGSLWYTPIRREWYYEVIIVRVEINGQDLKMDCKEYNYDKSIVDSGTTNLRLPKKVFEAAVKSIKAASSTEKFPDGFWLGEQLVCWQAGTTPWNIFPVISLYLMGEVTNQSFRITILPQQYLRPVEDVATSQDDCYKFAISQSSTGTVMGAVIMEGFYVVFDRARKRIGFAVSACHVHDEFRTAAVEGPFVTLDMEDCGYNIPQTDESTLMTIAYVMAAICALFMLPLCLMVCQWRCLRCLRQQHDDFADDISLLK
T1 sequence (P07339 65-412, species assumed): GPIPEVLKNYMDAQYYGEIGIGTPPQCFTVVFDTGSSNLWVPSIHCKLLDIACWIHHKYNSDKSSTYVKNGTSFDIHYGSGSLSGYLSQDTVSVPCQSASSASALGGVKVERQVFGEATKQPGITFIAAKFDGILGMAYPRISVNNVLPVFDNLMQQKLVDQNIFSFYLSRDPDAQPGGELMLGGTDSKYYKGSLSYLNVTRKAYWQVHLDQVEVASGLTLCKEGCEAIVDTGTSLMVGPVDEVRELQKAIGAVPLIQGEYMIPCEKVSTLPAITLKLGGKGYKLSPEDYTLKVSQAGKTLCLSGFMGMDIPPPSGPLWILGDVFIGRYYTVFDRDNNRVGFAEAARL

| IC50 ([1]; average IC50, cell assay) [µM] | IC50 [2] [µM] | IC50 ([3]; average IC50, enzyme assay) [µM] | IC50 ([1]; average IC50, HEK cell assay) [µM] | SMILES | IC50 ([1]; average IC50, HEK cells) [µM] | IC50 ([3]; average IC50) [µM] |
| --- | --- | --- | --- | --- | --- | --- |
| 0.0159 | 1870 | 0.00704 | – | CC1(C)C(N)=N[C@](C)(c2cc(NC(=O)c3ccc(Cl)cn3)c[nH]c2=O)CS1(=O)=O [Example 452, N-(5-((3R)-5-amino-3,6,6-trimethyl-1,1-dioxido-3,6-dihydro-2H-1,4-thiazin-3-yl)-6-oxo-1,6-dihydro-3-pyridinyl)-5-chloro-2-pyridinecarboxamide] | – | – |
| – | 636 | 0.00299 | 0.0245 | Cc1cnc(C(=O)Nc2ccc(F)c([C@]3(CF)CS(=O)(=O)C(C)(C)C(N)=N3)c2)c(C)c1 [Example 360, N-(3-((3S)-5-amino-3-(fluoromethyl)-6,6-dimethyl-1,1-dioxido-3,6-dihydro-2H-1,4-thiazin-3-yl)-4-fluorophenyl)-3,5-dimethyl-2-pyridinecarboxamide] | – | – |
| – | 36.6 | 0.0412 | 0.018 | CC1(C)C(N)=N[C@](C)(c2cc(NC(=O)c3cnc4ccccc4n3)ccc2F)CS1(=O)=O [Example 316, N-(3-((3R)-5-amino-3,6,6-trimethyl-1,1-dioxido-3,6-dihydro-2H-1,4-thiazin-3-yl)-4-fluorophenyl)-2-quinoxalinecarboxamide] | – | – |
| 0.0784 | 303 | 0.0131 | – | COc1cnc2c(Nc3ccc(F)c([C@@]4(C)N=C(N)C5(CCC5)S(=O)(=O)C4F)c3)nccc2n1 (stereo partly drawn) [Example 232, N-(3-((7R)-9-amino-6-fluoro-7-methyl-5,5-dioxido-5-thia-8-azaspiro[3.5]non-8-en-7-yl)-4-fluorophenyl)-2-methoxypyrido[3,4-b]pyrazin-5-amine] | – | – |
| 0.0006 | 104 | 0.00068 | – | CC1(C)C(N)=N[C@](C)(c2cc(Nc3nncc4cc(Br)cnc34)ccc2F)CS1(=O)=O [Example 451, N-(3-((3R)-5-amino-3,6,6-trimethyl-1,1-dioxido-3,6-dihydro-2H-1,4-thiazin-3-yl)-4-fluorophenyl)-3-bromopyrido[2,3-d]pyridazin-8-amine] | – | – |
| 0.263 | 13.9 | 0.0022 | – | CC1(C)C(N)=N[C@](C)(c2cc(Nc3cc(Cl)cc4cc(Cl)cnc34)ccc2F)CS1(=O)=O [Example 446, N-(3-((3R)-5-amino-3,6,6-trimethyl-1,1-dioxido-3,6-dihydro-2H-1,4-thiazin-3-yl)-4-fluorophenyl)-3,6-dichloro-8-quinolinamine] | – | – |
| – | 303 | 0.0003 | 0.0035 | CC1(C)C(N)=N[C@](CF)(c2cc(NC(=O)c3ccc(OC(F)F)cn3)ccc2F)CS1(=O)=O [Example 362, N-(3-((3S)-5-amino-3-(fluoromethyl)-6,6-dimethyl-1,1-dioxido-3,6-dihydro-2H-1,4-thiazin-3-yl)-4-fluorophenyl)-5-(difluoromethoxy)-2-pyridinecarboxamide] | – | – |
| – | > 133 | 0.00021 | 0.0036 | CC#CCOc1cnc(C(=O)Nc2ccc(F)c([C@]3(C)CS(=O)(=O)[C@@](C)(F)C(N)=N3)c2)cn1 [Example 317, N-(3-((3R,6R)-5-amino-6-fluoro-3,6-dimethyl-1,1-dioxido-3,6-dihydro-2H-1,4-thiazin-3-yl)-4-fluorophenyl)-5-(2-butyn-1-yloxy)-2-pyrazinecarboxamide] | – | – |
| – | > 400 | 0.0018 | 0.0688 | COc1ccc(C(=O)Nc2ccc(F)c([C@]3(C)CS(=O)(=O)[C@@](C)(F)C(N)=N3)c2)nc1 [Example 318, N-(3-((3R,6R)-5-amino-6-fluoro-3,6-dimethyl-1,1-dioxido-3,6-dihydro-2H-1,4-thiazin-3-yl)-4-fluorophenyl)-5-methoxy-2-pyridinecarboxamide] | – | – |

| SMILES | IC50 ([1]; average IC50, cell assay) [µM] | IC50 [2] [µM] | IC50 ([3]; average IC50, enzyme assay) [µM] | IC50 ([1]; average IC50, HEK cell assay) [µM] | IC50 ([1]; average IC50, HEK cells) [µM] | IC50 ([3]; average IC50) [µM] |
| --- | --- | --- | --- | --- | --- | --- |
| CC1(C)C(N)=N[C@](CF)(c2cc(NC(=O)c3ccc(Cl)cn3)ccc2F)CS1(=O)=O [Example 193, (S)—N-(3-(5-amino-3-(fluoromethyl)-6,6-dimethyl-1,1-dioxido-3,6-dihydro-2H-1,4-thiazin-3-yl)-4-fluorophenyl)-5-chloropicolinamide] | – | 228 | – | – | 0.0161 | 0.00076 |
